In publication PMC3760305, “Mimicking Protein–Protein Interactions through Peptide–Peptide Interactions: HIV-1 gp120 and CXCR4” (Frontiers in Immunology, 2013):
“Also recorded” adds a separate entry of the source.

Columns and labels:
gp120HxBc2 [1] = target: T1, gp120HxBc2 (Human immunodeficiency virus type 1 group M subtype B, UniProt P04578); assay type: binding, HIV-1; conditions: direct ELISA; variants 2.5 μM; gp120 8.3 nM in the presence of sCD4; relative to CX4-M1
T1 construct: gp120MN, gp120ADA, and gp120HxBc2 from Immune Technology; purchased Immune Technology
Description: (§1) High binding microtiter plates (Immulon 2HB) were coated overnight at 4°C with streptavidin (4 μg/mL) in 0.1 M sodium carbonate buffer pH 9.5. Unspecific binding was blocked with 1% BSA in 0.1 M phosphate buffer pH 7.2, 200 μL/well for 1 h. All following steps were performed using 0.1 M phosphate buffer pH 7.2 containing 1% BSA (ELISA with V3 loop peptides) and 0.1% BSA (ELISA with gp120), respectively, as well as 0.01% Tween 20. Plates were incubated with 100 μL CX4-M1 variants (0.5 μM for binding to V3 loop peptides, 2.5 μM for binding to gp120), or biotin alone as a blank, for 2 h. Plates were then incubated for 3 h with fluoresceinylated V3 loop peptides (250 or 100 nM), or gp120 (8.3 nM, either with or without 8.3 nM sCD4). V3 loop peptides were detected using 100 μL/well mouse anti-fluorescein-HRP conjugate from antibodies online (3 μg/mL) for 1 h. Gp120 was detected using a two antibody system. Sheep anti-gp120 (D7324) from Aalto Bio Reagents (0.2 μg/mL) was added for 1 h, followed by a 1 h incubation with rabbit anti-sheep-HRP conjugate from Dianova (3 μg/mL), 100 μL/well. Plates were washed four times with 0.01% Tween 20 in 0.1 M phosphate buffer pH 7.2 (300 μL/well) after each incubation step. Plates were developed with 100 μL/well OPD (1 mg/mL) in the presence of 0.03% H2O2 for approximately 1.5 min (V3 loop peptide detection), or 3.5 min (gp120 detection) in the dark. After the reaction was stopped with 50 μL/well 2 M H2SO4, absorbances were read at 492 nm and corrected for the blank (sample with biotin instead of CX4-M1). All data points present means of at least duplicates.

V3 loop peptide V3HxBc2 = assay: Direct ELISA: CX4-M1 variants binding to V3 loop peptide; set-up: species or system HIV-1; conditions: variants 0.5 μM, fluoresceinylated V3HxBc2, relative to CX4-M1
Description: as §1

[2] = target: T2, CXCR4 mimetic peptide CX4-M1 (Homo sapiens, UniProt P61073); assay: Direct ELISA: fluoresceinylated V3 loop peptides binding to CX4-M1; conditions: for effect of alanine substitution in V3HxBc2 on binding to CX4-M1: direct ELISA, relative to V3HxBc2; for binding of V3 loop peptide to CX4-M1 (direct ELISA): CX4-M1 0.5 μM on streptavidin plate, fluoresceinylated V3 loop peptides 250 or 100 nM, 3 h, absorbance 492 nm
Description: as §1

gp120MN = target: T3, gp120MN (Human immunodeficiency virus type 1 group M subtype B, UniProt P05877); assay: SPR: binding of gp120 to captured CX4-M1; set-up: species or system HIV-1
T3 construct: gp120MN, gp120ADA, and gp120HxBc2 from Immune Technology; purchased Immune Technology
Description: (§2) All measurements were performed using a Biacore X100 instrument in conjunction with the Biotin CAPture Kit (both from GE Healthcare). Sensor chip CAP was hybridized with a 1:10 dilution of CAPture reagent (streptavidin conjugate) in running buffer. […] For dehybridization, a regeneration solution of 6 M guanidinium chloride and 250 mM sodium hydroxide was used. HBS-N buffer (10 mM HEPES, 150 mM sodium chloride, pH 7.4) containing 0.05% Tween 20, as well as 100 mM (V3 loop peptides) or 2.5 mM (gp120) magnesium chloride, was used as running buffer. Measurement and data evaluation was performed using Biacore X100 Control Software (Version 2.0) and Biacore X100 Evaluation Software (Version 2.0), respectively.

gp120HxBc2 [3] = target: T1, gp120HxBc2; assay: SPR: binding of gp120 to captured CX4-M1; set-up: species or system HIV-1
Description: as §2

[4] = target: T2, CXCR4 mimetic peptide CX4-M1; assay: SPR: binding of V3 loop peptides to captured CX4-M1; conditions: SPR Biacore X100; CX4-M1 (2 μM) bound to streptavidin; V3 loop peptides 5–0.3 μM; HBS-N pH 7.4, 0.05% Tween 20, 100 mM MgCl2
Description: as §2

Ac-ECL1-X-B-X-DRYICDRFYPNDAWV-X-B-X-ECL3-X-K(Bio)-NH2 (disulfide) [CX4-M1 L194A, alanine substitution variant of ECL2 of CX4-M1]
effect of alanine substitution in ECL2 of CX4-M1 on binding to gp120HxBc2 (gp120HxBc2 [1]): negative effect on the affinity; also recorded: attenuated binding | effect of alanine substitution in ECL2 of CX4-M1 on binding to V3HxBc2 (V3 loop peptide V3HxBc2): enhancement of binding

Fluo-X-G-X-CTRPNNNTRKRIRIQRGPGRAFATIGKIGNMRQAHC-NH2 (disulfide) [V3HxBc2 V318A, alanine scan variant of V3HxBc2]
effect of alanine substitution in V3HxBc2 on binding to CX4-M1 [2]: strongly diminished binding

Fluo-X-G-X-CTRPNNNTRKRIRIQRGPGRAAVTIGKIGNMRQAHC-NH2 (disulfide) [V3HxBc2 F317A, alanine scan variant of V3HxBc2]
effect of alanine substitution in V3HxBc2 on binding to CX4-M1 [2]: strongly diminished binding

CC[C@H](C)[C@@H]1NC(=O)[C@H](Cc2ccc(O)cc2)NC(=O)[C@H](CCCNC(=N)N)NC(=O)[C@H](CC(=O)O)NC(=O)CCCCCNC(=O)CCNC(=O)CCCCCNC(=O)[C@H](CCCCN)NC(=O)[C@@H](NC(=O)[C@H](CC(C)C)NC(=O)[C@H](Cc2ccccc2)NC(=O)[C@H](CC(N)=O)NC(=O)CNC(=O)[C@H](Cc2ccccc2)NC(=O)[C@H](Cc2ccc(O)cc2)NC(=O)[C@H](Cc2c[nH]c3ccccc23)NC(=O)[C@H](CC(N)=O)NC(=O)[C@H](C)NC(=O)[C@@H](NC(=O)[C@H](C)NC(=O)[C@H](CC(=O)O)NC(C)=O)C(C)C)CSSC[C@@H](C(=O)N[C@@H](CC(=O)O)C(=O)N[C@@H](CCCNC(=N)N)C(=O)N[C@@H](Cc2ccccc2)C(=O)N[C@@H](Cc2ccc(O)cc2)C(=O)N2CCC[C@H]2C(=O)N[C@@H](CC(N)=O)C(=O)N[C@@H](CC(=O)O)C(=O)N[C@@H](CC(C)C)C(=O)N[C@@H](Cc2c[nH]c3ccccc23)C(=O)N[C@H](C(=O)NCCCCCC(=O)NCCC(=O)NCCCCCC(=O)N[C@@H](CC(=O)O)C(=O)N[C@@H](CO)C(=O)N[C@@H](Cc2ccccc2)C(=O)N[C@H](C(=O)N[C@@H](CC(C)C)C(=O)N[C@@H](CC(C)C)C(=O)N[C@@H](CCC(=O)O)C(=O)N[C@H](C(=O)N[C@H](C(=O)N[C@@H](CCCCN)C(=O)N[C@@H](CCC(N)=O)C(=O)NCC(=O)N[C@@H](CO)C(=O)N[C@@H](CCC(=O)O)C(=O)N[C@@H](Cc2ccccc2)C(=O)N[C@@H](CCC(=O)O)C(=O)N[C@@H](CC(N)=O)C(=O)N[C@H](C(=O)N[C@H](C(=O)N[C@@H](Cc2c[nH]cn2)C(=O)N[C@@H](CCCCN)C(=O)NCCCCCC(=O)N[C@@H](CCCCNC(=O)CCCC[C@@H]2SC[C@@H]3NC(=O)N[C@@H]32)C(N)=O)C(C)C)[C@@H](C)O)[C@@H](C)CC)[C@@H](C)CC)[C@@H](C)CC)C(C)C)NC1=O [CX4-M1]
Kd (gp120MN): 700 nM | Kd (gp120HxBc2 [3]): 200 nM

Fluo-X-G-X-CTRPNNNTRKSIHI–GPGRAFYTTGEIIGDIRQAHC-NH2 (disulfide) [Peptide V3ADA, fluoresceinylated peptide presenting the V3 loop of gp120 from R5-tropic HIV-1 ADA]
KD (V3 loop peptide) to CX4-M1 [4]: No binding

Fluo-X-G-X-CTRPNNNTRKRIAIQRGPGRAFVTIGKIGNMRQAHC-NH2 (disulfide) [V3HxBc2 R308A, alanine scan variant of V3HxBc2]
effect of alanine substitution in V3HxBc2 on binding to CX4-M1 [2]: strongly diminished binding

Yc-X-G-X-CTRPNNNTRKSIHI–GPGRALYTTGEIIGDIRQAHC-NH2 (disulfide) [Peptide V3BAL, fluoresceinylated peptide presenting the V3 loop of gp120 from R5-tropic HIV-1 BAL]
KD (V3 loop peptide) to CX4-M1 [4]: No binding

Fluo-X-G-X-CTRPNNNTRK––QRGPGRA–-GKIGNMRQAHC–NH2 (disulfide) [V3HxBc2 Δbeta]
binding of V3 loop peptide to CX4-M1 (direct ELISA) [2]: complete loss of binding

Fluo-X-G-X-CTRPNNNTRKRIRAQRGPGRAFVTIGKIGNMRQAHC-NH2 (disulfide) [V3HxBc2 I309A, alanine scan variant of V3HxBc2]
effect of alanine substitution in V3HxBc2 on binding to CX4-M1 [2]: strongly diminished binding

Ac-ECL1-X-B-X-DRAICDRFYPNDLWV-X-B-X-ECL3-X-K(Bio)-NH2 (disulfide) [CX4-M1 Y184A, alanine substitution variant of ECL2 of CX4-M1]
effect of alanine substitution in ECL2 of CX4-M1 on binding to gp120HxBc2 (gp120HxBc2 [1]): attenuated binding | effect of alanine substitution in ECL2 of CX4-M1 on binding to V3HxBc2 (V3 loop peptide V3HxBc2): enhancement of binding

Fluo-X-G-X––––-C^dRIRIQRGPGRAFVTIC^d–––––-NH2 (disulfide) [V3HxBc2 turn/beta, truncated variant of V3HxBc2 presenting the turn region and the two beta strands]
binding of V3 loop peptide to CX4-M1 (direct ELISA) [2]: retained some of the affinity

Ac-ECL1-X-B-X-DRYICDRFYPNDLWA-X-B-X-ECL3-X-K(Bio)-NH2 (disulfide) [CX4-M1 V196A, alanine substitution variant of ECL2 of CX4-M1]
effect of alanine substitution in ECL2 of CX4-M1 on binding to V3HxBc2 (V3 loop peptide V3HxBc2): enhancement of binding

Fluo-X-G-X––––––-C^dQRGPGRAC^d–––––––-NH2 (disulfide) [V3HxBc2 turn, truncated variant of V3HxBc2 presenting only the turn region]
binding of V3 loop peptide to CX4-M1 (direct ELISA) [2]: complete loss of binding

Ac-ECL1-X-B-X-DRYICDRFAPNDLWV-X-B-X-ECL3-X-K(Bio)-NH2 (disulfide) [CX4-M1 Y190A, alanine substitution variant of ECL2 of CX4-M1]
effect of alanine substitution in ECL2 of CX4-M1 on binding to gp120HxBc2 (gp120HxBc2 [1]): attenuated binding | effect of alanine substitution in ECL2 of CX4-M1 on binding to V3HxBc2 (V3 loop peptide V3HxBc2): enhancement of binding

Fluo-X-G-X-CTRPNNNTRKRARIQRGPGRAFVTIGKIGNMRQAHC-NH2 (disulfide) [V3HxBc2 I307A, alanine scan variant of V3HxBc2]
effect of alanine substitution in V3HxBc2 on binding to CX4-M1 [2]: strongly diminished binding

Fluo-X-G-X-CTRPNNNTRKRIRIQRGPGRAFVTAGKIGNMRQAHC-NH2 (disulfide) [V3HxBc2 I320A, alanine scan variant of V3HxBc2]
effect of alanine substitution in V3HxBc2 on binding to CX4-M1 [2]: strongly diminished binding
